Measurements reported in paper PMC7662280 (Molecules, 2020).
Values joined by “and” are separate entries in the source; they are usually repeats but may differ in a detail not shown here. Identical values can stand only once. Like-named read-outs stand apart in the source and are kept apart here.

Key:
[1] = biological target: T1, soybean lipoxygenase (isozyme LOX-1) (Glycine max, UniProt P08170); conditions: previously published, cited from earlier work; for IC50: read-out: LOX IC50 (μM) ± SEM
T1 construct: purchased Sigma Chemical, Co. (St. Louis, MO, USA)
T1 sequence (P08170 1-839): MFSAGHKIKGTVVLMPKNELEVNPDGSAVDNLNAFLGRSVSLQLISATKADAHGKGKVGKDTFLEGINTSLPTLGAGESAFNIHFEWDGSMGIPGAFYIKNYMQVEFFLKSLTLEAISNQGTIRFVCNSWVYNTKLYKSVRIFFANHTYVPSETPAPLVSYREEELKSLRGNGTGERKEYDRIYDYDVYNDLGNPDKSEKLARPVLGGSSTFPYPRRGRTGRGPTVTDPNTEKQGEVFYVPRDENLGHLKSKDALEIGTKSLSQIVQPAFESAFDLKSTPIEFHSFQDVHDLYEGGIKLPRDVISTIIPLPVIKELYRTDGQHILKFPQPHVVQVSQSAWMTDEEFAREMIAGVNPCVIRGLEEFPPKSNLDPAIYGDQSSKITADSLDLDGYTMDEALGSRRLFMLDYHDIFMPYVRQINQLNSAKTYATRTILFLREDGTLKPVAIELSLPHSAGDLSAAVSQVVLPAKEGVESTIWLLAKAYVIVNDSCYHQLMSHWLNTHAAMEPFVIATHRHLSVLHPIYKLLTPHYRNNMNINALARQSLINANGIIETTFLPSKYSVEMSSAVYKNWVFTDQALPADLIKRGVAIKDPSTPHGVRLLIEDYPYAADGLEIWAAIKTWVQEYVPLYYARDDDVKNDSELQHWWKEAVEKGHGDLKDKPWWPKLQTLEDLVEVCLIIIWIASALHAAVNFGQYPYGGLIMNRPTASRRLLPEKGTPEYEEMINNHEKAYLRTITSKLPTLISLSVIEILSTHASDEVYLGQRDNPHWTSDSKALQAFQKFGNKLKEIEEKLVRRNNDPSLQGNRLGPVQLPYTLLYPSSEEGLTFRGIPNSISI

[2] = biological target: T1, soybean lipoxygenase (isozyme LOX-1); test: Soybean lipoxygenase inhibition study; assay type: biochemical; conditions: for inhibition at 100 µM: read-out: LOX (% Inhibition at 100 μM) ± SEM, soybean lipoxygenase, 100 μM
[3] = Inhibition of linoleic acid peroxidation induced by AAPH; conditions: anti-lipid peroxidation of linoleic acid, 100 μM
[4] = Experimental lipophilicity as RM values by RPTLC; assay type: physicochemical; conditions: silica gel impregnated with liquid paraffin, methanol/water 77/23, 24 °C
eel AChE = biological target: T2, eel AChE (Electrophorus electricus, UniProt O42275); test: biochemical; conditions: for inhibition at 100 µM: n.a. = no activity under the experimental conditions, read-out: AChE (% Inhibition at 100 μM) ± SEM; for IC50: acetylthiocholine substrate, read-out: AChE IC50 (μM) ± SEM
T2 construct: purchased Sigma-Aldrich Type VI-S

bovine COX-2 = biological target: T3, bovine COX-2 (Bos taurus, UniProt O62698); test: biochemical; assay type: biochemical
T3 sequence (O62698 18-604): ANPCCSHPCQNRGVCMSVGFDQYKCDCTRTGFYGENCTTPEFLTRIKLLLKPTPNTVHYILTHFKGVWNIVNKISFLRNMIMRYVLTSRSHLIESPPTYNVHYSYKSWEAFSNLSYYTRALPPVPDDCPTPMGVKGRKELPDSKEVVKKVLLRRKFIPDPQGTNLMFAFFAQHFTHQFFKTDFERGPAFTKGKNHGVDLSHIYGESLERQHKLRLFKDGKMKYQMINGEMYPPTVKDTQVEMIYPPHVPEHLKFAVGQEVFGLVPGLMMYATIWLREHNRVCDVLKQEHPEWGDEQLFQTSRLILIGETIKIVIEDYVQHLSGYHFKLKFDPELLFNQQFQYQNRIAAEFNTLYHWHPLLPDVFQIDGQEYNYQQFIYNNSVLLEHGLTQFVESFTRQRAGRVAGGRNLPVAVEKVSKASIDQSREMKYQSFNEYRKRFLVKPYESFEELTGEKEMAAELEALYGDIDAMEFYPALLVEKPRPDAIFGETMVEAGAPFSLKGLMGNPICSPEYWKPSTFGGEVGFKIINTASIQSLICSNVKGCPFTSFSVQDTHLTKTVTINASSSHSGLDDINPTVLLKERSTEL

[5] = soybean lipoxygenase, sodium linoleate substrate, read-out: LOX IC50 (μM) ± SEM

T2 sequence (O42275 24-633): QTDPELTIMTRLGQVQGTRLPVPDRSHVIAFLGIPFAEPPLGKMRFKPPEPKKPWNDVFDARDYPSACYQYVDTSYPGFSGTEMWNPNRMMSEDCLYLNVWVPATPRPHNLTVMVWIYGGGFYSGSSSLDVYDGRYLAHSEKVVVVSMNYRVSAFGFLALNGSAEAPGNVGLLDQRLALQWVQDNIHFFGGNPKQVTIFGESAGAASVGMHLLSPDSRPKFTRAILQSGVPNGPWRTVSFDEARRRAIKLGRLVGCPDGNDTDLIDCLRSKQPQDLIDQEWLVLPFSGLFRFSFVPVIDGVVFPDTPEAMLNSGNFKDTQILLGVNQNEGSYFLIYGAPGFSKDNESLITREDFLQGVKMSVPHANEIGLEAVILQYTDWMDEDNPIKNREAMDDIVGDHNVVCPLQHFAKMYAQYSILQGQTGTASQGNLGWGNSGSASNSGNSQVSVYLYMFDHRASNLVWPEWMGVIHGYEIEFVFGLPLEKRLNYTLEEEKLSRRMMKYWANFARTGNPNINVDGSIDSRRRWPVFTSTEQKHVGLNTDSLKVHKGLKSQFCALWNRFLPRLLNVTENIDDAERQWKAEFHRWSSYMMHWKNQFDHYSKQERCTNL

Molecule | AAPH Inhibition (%, at 100 μΜ) [3] [%] | RM ± S.D. [4] | inhibition at 100 µM (eel AChE) [%] | IC50 [2, 5] [µM] | also measured
O=C1/C(=C/c2cccc3ccccc23)CNC/C1=C\c1cccc2ccccc12 [1a, (3E,5E)-3,5-bis(naphthalen-1-ylmethylene)piperidin-4-one] |  |  |  |  | IC50 [1]: 37 µM
O=C(O)/C=C/c1cccc2ccccc12 [2b] | 78 ± 0.7 | −0.576 ± 0.077 |  |  | IC50 [2]: 27.5 µM
COc1cc(/C=C/C(=O)CC(=O)/C=C/c2ccc(O)c(OC)c2)ccc1O [Curcumin, reference compound] |  | 0.175 ± 0.029 |  |  | inhibition at 100 µM [2]: 38%
O=C(O)/C=C/c1ccccc1 [2a] | 78 ±1.6 | −0.485 ± 0.044 | 4.6 |  | 
(3E,5E)-3,5-bis((1H-imidazol-2-yl)methylene)piperidin-4-one [1f] |  |  |  |  | LOX (% Inhibition at 100 μM) ± SEM [1]: 36% ± 0.9
O=C1/C(=C/c2ccccc2)COC/C1=C\c1ccccc1 [1l, (3E,5E)-3,5-dibenzylidenedihydro-2H-pyran-4(3H)-one] | 42 ± 1.5 |  | 25 |  | inhibition at 100 µM [2]: < 10%
O=C1/C(=C/c2ccccc2)CN(C(=O)C=Cc2ccccc2)C/C1=C\c1ccccc1 [3g, (3E,5E)-3,5-dibenzylidene-1-cinnamoylpiperidin-4-one] | 53 ± 1.6 | 0.235 ± 0.039 |  |  | IC50 [2]: 82 µM; IC50 (eel AChE): 100 µM
O=C1/C(=C/c2ccc(F)cc2)CN(C(=O)C=Cc2ccccc2)C/C1=C\c1ccc(F)cc1 [3d, (3E,5E)-1-cinnamoyl-3,5-bis(4-fluorobenzylidene)piperidin-4-one] | 84 ± 1.7 | 0.237 ± 0.06 | 31 | 63.5 | 
O=C1/C(=C/c2cccs2)CNC/C1=C\c1cccs1 [1b, (3E,5E)-3,5-bis(thiophen-2-ylmethylene)piperidin-4-one] |  |  |  |  | IC50 [1]: 330 µM
O=C1/C(=C/c2ccc(F)cc2)CNC/C1=C\c1ccc(F)cc1 [1j, (3E,5E)-3,5-bis(4-fluorobenzylidene)piperidin-4-one] | 36.2 ± 1.8 |  |  |  | 
S=C1/C(=C/c2ccccc2)CNC/C1=C\c1ccccc1 [1o, (3E,5E)-3,5-dibenzylidenepiperidine-4-thione] | 8 ± 0.01 | −0.848 ± 0.19 |  | 10 | inhibition at 100 µM [2]: < 10%
Cc1c(C)c2c(c(C)c1O)CCC(C)(C(=O)O)O2 (stereo not shown) [Trolox, reference compound] | 92 ± 2.1 |  |  |  | 
O=C1/C(=C/c2cccc3ccccc23)CC/C1=C\c1cccc2ccccc12 [1k, (2E,5E)-2,5-bis(naphthalen-1-ylmethylene)cyclopentanone] | 100 ± 2.2 | 0.872 ± 0.039 | 36 | 14 | 
O=C1/C(=C/c2cccc3ccccc23)COC/C1=C\c1cccc2ccccc12 [1m, (3E,5E)-3,5-bis(naphthalen-1-ylmethylene)dihydro-2H-pyran-4(3H)-one] | 100 ± 2.8 | 0.577 ± 0.027 | 32 | 50.5 | 
O=C1/C(=C/c2c[nH]c3ccccc23)CNC/C1=C\c1c[nH]c2ccccc12 [1c, (3E,5E)-3,5-bis((1H-indol-3-yl)methylene)piperidin-4-one] |  |  |  |  | IC50 [1]: 380 µM
O=C1/C(=C/c2ccc(F)cc2)CN(C(=O)/C=C/c2cccc3ccccc23)C/C1=C\c1ccc(F)cc1 [3f, (3E,5E)-3,5-bis(4-fluorobenzylidene)-1-((E)-3-(naphthalen-1-yl)acryloyl)piperidin-4-one] | 90 ± 2.4 | 0.564 ± 0.045 | 24 | 55 | 
O=C1/C(=C/c2cccc3ccccc23)CN(C(=O)/C=C/c2cccc3ccccc23)C/C1=C\c1cccc2ccccc12 [3c, (3E,5E)-1-((E)-3-(naphthalen-1-yl)acryloyl)-3,5-bis(naphthalen-1-ylmethylene)piperidin-4-one] | 88 ± 2.0 | −0.658 and −0.658 ± 0.061 | 29 | 37.5 | 
O=C1/C(=C/c2cccc3ccccc23)CSC/C1=C\c1cccc2ccccc12 [1n, (3Z,5Z)-3,5-bis(naphthalen-1-ylmethylene)dihydro-2H-thiopyran-4(3H)-one] | 100 ± 2.5 | 0.131 ± 0.142 | 18 | 57.5 | 
O=C1/C(=C/c2cccc3ccccc23)CN(C(=O)C=Cc2ccccc2)C/C1=C\c1cccc2ccccc12 [3a, (3E,5E)-1-cinnamoyl-3,5-bis(naphthalen-1-ylmethylene)piperidin-4-one] | 91 ± 1.9 | 0.599 ± 0.024 |  | 50 | IC50 (eel AChE): 85 µM
S=C1/C(=C/c2cccc3ccccc23)CNC/C1=C\c1cccc2ccccc12 [1p, (3E,5E)-3,5-bis(naphthalen-1-ylmethylene)piperidine-4-thione] | 100 ± 3.3 | −0.679 ± 0.035 | 26.6 | 35 | 
O=C1/C(=C/c2ccccc2)CN(C(=O)/C=C/c2cccc3ccccc23)C/C1=C\c1ccccc1 [3b, (3E,5E)-3,5-dibenzylidene-1-((E)-3-(naphthalen-1-yl)acryloyl)piperidin-4-one] | 90 ± 2.8 | 0.509 ± 0.062 | 17 | 55 | 
O=C1/C(=C/c2ccc3[nH]ccc3c2)CNC/C1=C\c1ccc2[nH]ccc2c1 [1d, (3E,5E)-3,5-bis((1H-indol-5-yl)methylene)piperidin-4-one] |  |  |  |  | IC50 [1]: 410 µM
O=C1/C(=C/c2cc3ccccc3o2)CNC/C1=C\c1cc2ccccc2o1 [1q, (3E,5E)-3,5-bis(benzofuran-2-ylmethylene)piperidin-4-one] | 13 ± 0.2 | −0.019 ± 0.143 | 16.5 |  | inhibition at 100 µM [2]: 3%
O=C1/C(=C/c2ccccc2)CNC/C1=C\c1ccccc1 [1g, (3E,5E)-3,5-dibenzylidenepiperidin-4-one] |  |  |  |  | LOX (% Inhibition at 100 μM) ± SEM [1]: 8% ± 0.2
O=C1/C(=C/c2cccs2)CN(C(=O)/C=C/c2cccc3ccccc23)C/C1=C\c1cccs1 [3e, (3E,5E)-1-((E)-3-(naphthalen-1-yl)acryloyl)-3,5-bis(thiophen-2-ylmethylene)piperidin-4-one] | 91 ± 2.5 | 0.514 ± 0.039 |  | 52 | IC50 (eel AChE): 70 µM; inhibition at 100 µM (bovine COX-2; bovine COX-2, 100 μM, n.a. = no activity under the experimental conditions, read-out: COX-2 (% Inhibition at 100 μM) ± SEM): 19%
O=C(O)/C=C/c1ccc(O)c(O)c1 [2c, caffeic acid] | 80 ± 2.2 |  |  |  | COX-2 (% Inhibition at 100 μM) ± SEM (bovine COX-2; bovine COX-2, 100 μM, n.a. = no activity under the experimental conditions): presented anti-COX-2 activity; IC50 (bovine COX-2; bovine COX-2, read-out: COX-2 IC50 (μM) ± SEM): 57.5 µM
O=C1/C(=C/c2cccc3ccccc23)CN(C(=O)/C=C/c2ccc(O)c(O)c2)C/C1=C\c1cccc2ccccc12 [3h, (3E,5E)-1-((E)-3-(3,4-dihydroxyphenyl)acryloyl)-3,5-bis(naphthalen-1-ylmethylene)piperidin-4-one] | 93 ± 2.2 | −0.657 and −0.657 ± 0.013 | 14 to 34 | 34 | 
